From PubChem BioAssay (NCI)
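Where inhibition never reached the appropriate level, the endpoint shown equals the highest concentration tested. Otherwise, values were interpolated linearly from a five-concentration, 48-hour dose response in 96-well plates. At the GI50, growth is halved. TGI is the concentration that stops growth completely.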

Tests used:
Experiment in all cases: NCI-60 cell line screen, 48 h
SK-OV-3 ovarian = tested on: SK-OV-3 ovarian
A498 renal = tested on: A498 renal
HCT-15 colon = tested on: HCT-15 colon
LOX IMVI melanoma = tested on: LOX IMVI melanoma
HOP-62 NSCLC = tested on: HOP-62 NSCLC
SK-MEL-5 melanoma = tested on: SK-MEL-5 melanoma
MDA-MB-435 = tested on: MDA-MB-435
KM12 colon = tested on: KM12 colon
HT29 colon = tested on: HT29 colon
TK-10 renal = tested on: TK-10 renal
OVCAR-3 ovarian = tested on: OVCAR-3 ovarian
RXF 393 renal = tested on: RXF 393 renal
SK-MEL-28 melanoma = tested on: SK-MEL-28 melanoma
MALME-3M melanoma = tested on: MALME-3M melanoma
SF-539 CNS = tested on: SF-539 CNS
OVCAR-5 ovarian = tested on: OVCAR-5 ovarian
SN12C renal = tested on: SN12C renal
SF-295 CNS = tested on: SF-295 CNS
IGROV1 ovarian = tested on: IGROV1 ovarian
SNB-19 CNS = tested on: SNB-19 CNS
MCF7 breast = tested on: MCF7 breast
NCI-H23 lung = tested on: NCI-H23 lung
UO-31 renal = tested on: UO-31 renal
COLO 205 colon = tested on: COLO 205 colon
M14 melanoma = tested on: M14 melanoma
U251 CNS = tested on: U251 CNS
UACC-62 melanoma = tested on: UACC-62 melanoma
HS 578T breast = tested on: HS 578T breast
CCRF-CEM leukemia = tested on: CCRF-CEM leukemia
OVCAR-8 ovarian = tested on: OVCAR-8 ovarian
CAKI-1 renal = tested on: CAKI-1 renal
T-47D breast = tested on: T-47D breast
DU-145 prostate = tested on: DU-145 prostate
NCI-H460 lung = tested on: NCI-H460 lung
PC-3 prostate = tested on: PC-3 prostate
NCI/ADR-RES ovarian = tested on: NCI/ADR-RES ovarian
RPMI-8226 leukemia = tested on: RPMI-8226 leukemia
UACC-257 melanoma = tested on: UACC-257 melanoma
NCI-H522 lung = tested on: NCI-H522 lung
NCI-H226 lung = tested on: NCI-H226 lung
EKVX NSCLC = tested on: EKVX NSCLC
SK-MEL-2 melanoma = tested on: SK-MEL-2 melanoma
OVCAR-4 ovarian = tested on: OVCAR-4 ovarian
786-0 renal = tested on: 786-0 renal
HCT-116 colon = tested on: HCT-116 colon
SW-620 colon = tested on: SW-620 colon
A549 NSCLC = tested on: A549 NSCLC
MDA-MB-231 breast = tested on: MDA-MB-231 breast
SF-268 CNS = tested on: SF-268 CNS
ACHN renal = tested on: ACHN renal
SR leukemia = tested on: SR leukemia
HL-60(TB) leukemia = tested on: HL-60(TB) leukemia
MOLT-4 leukemia = tested on: MOLT-4 leukemia
HCC-2998 colon = tested on: HCC-2998 colon
SNB-75 CNS = tested on: SNB-75 CNS
HOP-92 NSCLC = tested on: HOP-92 NSCLC
K-562 leukemia = tested on: K-562 leukemia

## C[C@H](CCCOS(C)(=O)=O)[C@H]1CC[C@H]2[C@@H]3CC[C@@H]4C[C@H](OS(C)(=O)=O)CC[C@]4(C)[C@H]3CC[C@]12C
SK-OV-3 ovarian
  GI50: > 2500 µM
A498 renal
  GI50: 664 µM
HCT-15 colon
  GI50: 1020 µM
  TGI: > 2500 µM
LOX IMVI melanoma
  GI50: 483 µM
  TGI: 1270 µM
HOP-62 NSCLC
  GI50: 493 µM
SK-MEL-5 melanoma
  GI50: 1110 µM
  TGI: > 2500 µM
MDA-MB-435
  GI50: 1140 µM
KM12 colon
  GI50: 1230 µM
  TGI: > 2500 µM
HT29 colon
  GI50: 1920 µM
  TGI: > 2500 µM
TK-10 renal
  GI50: 607 µM
OVCAR-3 ovarian
  GI50: 2170 µM
RXF 393 renal
  GI50: 367 µM
  TGI: > 2500 µM
SK-MEL-28 melanoma
  GI50: 1060 µM
  TGI: > 2500 µM
MALME-3M melanoma
  GI50: 994 µM
SF-539 CNS
  GI50: 586 µM
OVCAR-5 ovarian
  GI50: 391 µM
  TGI: > 2500 µM
SN12C renal
  GI50: 799 µM
SF-295 CNS
  GI50: 532 µM
  TGI: 1340 µM
IGROV1 ovarian
  GI50: 518 µM
  TGI: 1450 µM
SNB-19 CNS
  GI50: 929 µM
  TGI: > 2500 µM
MCF7 breast
  GI50: 323 µM
  TGI: 692 µM
NCI-H23 lung
  GI50: 286 µM
UO-31 renal
  GI50: > 2500 µM
  TGI: > 2500 µM
COLO 205 colon
  GI50: 1130 µM
  TGI: > 2500 µM
M14 melanoma
  GI50: 706 µM
  TGI: > 2500 µM
U251 CNS
  GI50: 356 µM
UACC-62 melanoma
  GI50: 710 µM
HS 578T breast
  GI50: 423 µM
CCRF-CEM leukemia
  GI50: > 2500 µM
  TGI: > 2500 µM
OVCAR-8 ovarian
  GI50: 582 µM
CAKI-1 renal
  GI50: 954 µM
T-47D breast
  GI50: 1040 µM
  TGI: > 2500 µM
DU-145 prostate
  GI50: 1160 µM
NCI-H460 lung
  GI50: 597 µM
  TGI: 2080 µM
PC-3 prostate
  GI50: 852 µM
NCI/ADR-RES ovarian
  GI50: 10.5 µM
RPMI-8226 leukemia
  GI50: 69.9 µM
  TGI: 1260 µM
UACC-257 melanoma
  GI50: 816 µM
  TGI: > 2500 µM
NCI-H522 lung
  GI50: 398 µM
  TGI: 961 µM
NCI-H226 lung
  GI50: 418 µM
EKVX NSCLC
  GI50: 865 µM
  TGI: > 2500 µM
SK-MEL-2 melanoma
  GI50: 989 µM
  TGI: > 2500 µM
OVCAR-4 ovarian
  GI50: 1850 µM
  TGI: > 2500 µM
786-0 renal
  GI50: 523 µM
HCT-116 colon
  GI50: 532 µM
  TGI: 1240 µM
SW-620 colon
  GI50: > 2500 µM
  TGI: > 2500 µM
A549 NSCLC
  GI50: 793 µM
MDA-MB-231 breast
  GI50: 503 µM
SF-268 CNS
  GI50: 590 µM
ACHN renal
  GI50: 395 µM

## COc1ccc(/C=C/C(=O)/C=C(/C=C/c2ccc(OC)c(OC)c2OC)OB(F)F)c(OC)c1OC
SK-OV-3 ovarian
  GI50: 3.77 µM
  TGI: > 100 µM
A498 renal
  GI50: 3.35 µM
  TGI: 10.2 µM
SR leukemia
  GI50: 0.278 µM
  TGI: > 100 µM
LOX IMVI melanoma
  GI50: 0.721 µM
  TGI: 2.4 µM
HOP-62 NSCLC
  GI50: 3.89 µM
  TGI: > 100 µM
SK-MEL-5 melanoma
  GI50: 1.77 µM
  TGI: 3.91 µM
HL-60(TB) leukemia
  GI50: 0.469 µM
  TGI: 3.96 µM
MDA-MB-435
  GI50: 2.15 µM
  TGI: > 100 µM
KM12 colon
  GI50: 2.09 µM
  TGI: 5.08 µM
TK-10 renal
  GI50: 9.03 µM
  TGI: > 100 µM
MOLT-4 leukemia
  GI50: 0.425 µM
  TGI: 4.74 µM
RXF 393 renal
  GI50: 1.35 µM
  TGI: 2.92 µM
MALME-3M melanoma
  GI50: 3.02 µM
  TGI: 62.4 µM
SF-539 CNS
  GI50: 3.11 µM
  TGI: > 100 µM
OVCAR-5 ovarian
  GI50: 3.3 µM
  TGI: > 100 µM
SN12C renal
  GI50: 2.01 µM
  TGI: > 100 µM
IGROV1 ovarian
  GI50: 1.89 µM
  TGI: > 100 µM
SNB-19 CNS
  GI50: 2.35 µM
  TGI: > 100 µM
MCF7 breast
  GI50: 0.502 µM
  TGI: > 100 µM
UO-31 renal
  GI50: 0.96 µM
  TGI: 3.65 µM
COLO 205 colon
  GI50: 1.94 µM
  TGI: 6.84 µM
HCC-2998 colon
  GI50: 1.94 µM
  TGI: 3.93 µM
M14 melanoma
  GI50: 2.74 µM
  TGI: > 100 µM
U251 CNS
  GI50: 0.973 µM
  TGI: 8.09 µM
UACC-62 melanoma
  GI50: 1.47 µM
  TGI: 4.69 µM
SNB-75 CNS
  GI50: 4.84 µM
  TGI: > 100 µM
CCRF-CEM leukemia
  GI50: 0.366 µM
  TGI: 2.08 µM
OVCAR-8 ovarian
  GI50: 1.16 µM
  TGI: > 100 µM
T-47D breast
  GI50: 3.62 µM
  TGI: > 100 µM
DU-145 prostate
  GI50: 3.13 µM
  TGI: > 100 µM
NCI-H460 lung
  GI50: 1.66 µM
  TGI: 3.52 µM
PC-3 prostate
  GI50: 2.82 µM
  TGI: > 100 µM
NCI/ADR-RES ovarian
  GI50: 3.28 µM
  TGI: > 100 µM
RPMI-8226 leukemia
  GI50: 0.466 µM
  TGI: 2.77 µM
HOP-92 NSCLC
  GI50: 7.46 µM
  TGI: > 100 µM
UACC-257 melanoma
  GI50: 9.33 µM
  TGI: > 100 µM
NCI-H522 lung
  GI50: 1.35 µM
  TGI: 4.62 µM
EKVX NSCLC
  GI50: 2.96 µM
  TGI: > 100 µM
SK-MEL-2 melanoma
  GI50: 2.36 µM
  TGI: 8.09 µM
OVCAR-4 ovarian
  GI50: 5.09 µM
  TGI: > 100 µM
HCT-116 colon
  GI50: 0.399 µM
  TGI: 3.33 µM
SW-620 colon
  GI50: 0.58 µM
  TGI: 4.34 µM
A549 NSCLC
  GI50: 3.44 µM
  TGI: > 100 µM
K-562 leukemia
  GI50: 1.28 µM
  TGI: > 100 µM
MDA-MB-231 breast
  GI50: 3.1 µM
  TGI: > 100 µM
SF-268 CNS
  GI50: 2.93 µM
  TGI: > 100 µM
